One assay concerns the target T1, human ACSS2 protein (Homo sapiens, UniProt Q9NR19).
T1 construct: purchased OriGene Technologies, Inc
The experiment in a line: ACSS2 cell-free activity assay (pyrophosphatase-coupled, Biomol green). As to conditions: 10 nM human ACSS2, 90 minutes at 37 C, absorbance at 620 nm; read-out: ACSS2 Biochemical IC50; call rule not given here. The procedure, abridged: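 10 nM human ACSS2 incubated 90 min at 37 C with compound, 300 μM ATP, 10 μM CoA, 5 mM NaAc in pH 7.5 Hepes buffer with 0.5 U/ml pyrophosphatase. Released phosphate detected with Biomol Green at 620 nm; IC50 by non-linear regression constrained to 0% and 100%.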

The target of another assay is T2, human ACSS1 protein (Homo sapiens, UniProt Q9NUB1).
T2 construct: purchased MyBioSource
T2 sequence (Q9NUB1 38-689): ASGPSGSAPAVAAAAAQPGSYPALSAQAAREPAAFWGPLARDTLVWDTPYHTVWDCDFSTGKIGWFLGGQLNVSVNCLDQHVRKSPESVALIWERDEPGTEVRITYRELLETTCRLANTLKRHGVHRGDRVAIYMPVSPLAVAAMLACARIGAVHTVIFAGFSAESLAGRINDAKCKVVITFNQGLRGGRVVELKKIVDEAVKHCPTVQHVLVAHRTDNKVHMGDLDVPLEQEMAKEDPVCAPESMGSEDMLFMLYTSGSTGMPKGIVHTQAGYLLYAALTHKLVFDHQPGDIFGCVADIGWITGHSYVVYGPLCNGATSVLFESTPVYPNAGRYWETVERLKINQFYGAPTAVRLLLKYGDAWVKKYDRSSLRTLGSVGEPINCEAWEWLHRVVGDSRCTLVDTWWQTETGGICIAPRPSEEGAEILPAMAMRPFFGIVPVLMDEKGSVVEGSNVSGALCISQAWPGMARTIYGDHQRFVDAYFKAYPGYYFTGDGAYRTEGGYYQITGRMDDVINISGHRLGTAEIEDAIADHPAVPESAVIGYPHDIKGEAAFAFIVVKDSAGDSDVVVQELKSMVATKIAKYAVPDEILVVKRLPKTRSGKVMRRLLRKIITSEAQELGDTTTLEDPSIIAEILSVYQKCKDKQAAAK
The experiment in a line: ACSS1 cell-free activity assay (pyrophosphatase-coupled, Biomol green). In kind it is biochemical. As to conditions: 5 nM human ACSS1, 30 minutes at room temperature, absorbance at 620 nm. The procedure, abridged: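 5 nM human ACSS1 incubated 30 min at RT with compound in pH 7.5 Hepes buffer with 15 μM CoA, 5 mM acetate, 300 μM ATP, 2 mM MgCl2 and pyrophosphatase. Released phosphate detected with Biomol Green (30 min), absorbance 620 nm. IC50 from constrained non-linear regression.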

The target of assay [1] is T3, ACSS2 in MDA-MB-468 cells (Homo sapiens, UniProt Q9NR19).
T3 construct: endogenous in cells; host or cells: MDA-MB-468 cells, hypoxia (1% O2)
As to the kind of experiment: Cellular fatty-acid IC50: 13C-acetate incorporation into fatty acids (palmitate), LC-MS. Conditions: hypoxic conditions (1% O2), 75% charcoal stripped serum, 5 hours, 13C-acetate into palmitate, read-out: Cellular Fatty-acid IC50 High Serum MDA468. In kind it is cell-based. The procedure, abridged:
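MDA-MB-468 cells under hypoxia (1% O2) treated 5 h with compound (0.000512-1000 nM) in medium with 75% charcoal-stripped serum and 0.5 mM 13C-acetate. 13C-palmitate quantified by LC-MS (negative ion, RSIM). IC50 from inhibition versus no-compound control, background-subtracted, constrained 0–100% nonlinear fit.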

This note sets out measurements from patent US20230174507A1, “IMIDAZOLE 3-OXIDE DERIVATIVE BASED ACSS2 INHIBITORS AND METHODS OF USE THEREOF” (METABOMED LTD., priority 2020, published 2023).

Where only a bound is given, the exact number is not on record here.

The IC50 is the concentration that gives 50% inhibition.

T1 sequence (Q9NR19 whole entry): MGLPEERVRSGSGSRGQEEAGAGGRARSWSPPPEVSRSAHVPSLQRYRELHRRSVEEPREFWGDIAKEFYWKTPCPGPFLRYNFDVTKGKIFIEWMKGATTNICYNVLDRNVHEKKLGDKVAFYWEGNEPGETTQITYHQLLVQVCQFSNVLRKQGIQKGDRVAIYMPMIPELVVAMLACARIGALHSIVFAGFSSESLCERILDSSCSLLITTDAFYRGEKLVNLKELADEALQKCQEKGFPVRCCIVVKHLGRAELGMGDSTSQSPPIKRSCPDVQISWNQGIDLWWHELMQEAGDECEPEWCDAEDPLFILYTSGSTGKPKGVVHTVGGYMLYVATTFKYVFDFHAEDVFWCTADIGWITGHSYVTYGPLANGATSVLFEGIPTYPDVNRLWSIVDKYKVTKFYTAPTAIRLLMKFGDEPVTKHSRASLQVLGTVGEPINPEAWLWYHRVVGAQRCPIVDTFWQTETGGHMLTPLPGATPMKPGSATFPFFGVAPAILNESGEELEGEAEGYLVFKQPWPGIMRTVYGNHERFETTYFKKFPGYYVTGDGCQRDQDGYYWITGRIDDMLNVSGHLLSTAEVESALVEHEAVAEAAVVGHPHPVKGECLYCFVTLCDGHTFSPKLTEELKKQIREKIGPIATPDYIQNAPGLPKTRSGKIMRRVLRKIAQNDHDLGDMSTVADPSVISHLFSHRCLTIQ
T3 sequence (Q9NR19 whole entry): as above

For the molecule `Cc1cccc(C)c1-c1cc(C#N)cc(-c2[nH]c(C)c(C(=O)Nc3cccc(C(F)(F)C4CC4)c3)[n+]2[O-])c1` [Compound 135, 2-(5-cyano-2′,6′-dimethyl-[1,1′-biphenyl]-3-yl)-4-((3-(cyclopropyldifluoromethyl)phenyl)carbamoyl)-5-methyl-1H-imidazole 3-oxide], the IC50 at human ACSS2 protein was below 0.001 µM; in assay [1], 0.02 to 0.05 µM. At human ACSS1 protein, the “ACSS1 Biochemical IC50 (nM)” value is given as “Inactive”.

With `Cc1cccc(C)c1-c1cc(F)cc(-c2[nH]c(C)c(C(=O)Nc3cccc(C(F)(F)C4CC4)c3)[n+]2[O-])c1` [Compound 129, 4-((3-(cyclopropyldifluoromethyl)phenyl)carbamoyl)-2-(5-fluoro-2′,6′-dimethyl-[1,1′-biphenyl]-3-yl)-5-methyl-1H-imidazole 3-oxide], the results for the IC50 (at human ACSS2 protein; in assay [1]) were below 0.001 µM and above 0.05 µM, respectively. Besides, the “ACSS1 Biochemical IC50 (nM)” value on human ACSS1 protein is on record as “Inactive”.

For `COc1cc(F)c(-c2[nH]c(C)c(C(=O)Nc3cccc(C(F)(F)F)c3)[n+]2[O-])cc1-c1c(F)cccc1F` [Compound 207, 5-methyl-2-(2′,4,6′-trifluoro-6-methoxy-[1,1′-biphenyl]-3-yl)-4-((3-(trifluoromethyl)phenyl)carbamoyl)-1H-imidazole 3-oxide], the results for the IC50 (on human ACSS2 protein; in assay [1]) were below 0.001 µM and above 0.05 µM, respectively. At human ACSS1 protein, the “ACSS1 Biochemical IC50 (nM)” value is on record as “Inactive”.

As to `CCC(F)(F)c1cccc(NC(=O)c2c(C)[nH]c(-c3cc(C)cc(-c4c(C)cccc4C)c3)[n+]2[O-])c1` [Compound 106, 4-((3-(1,1-difluoropropyl)phenyl)carbamoyl)-5-methyl-2-(2′,5,6′-trimethyl-[1,1′-biphenyl]-3-yl)-1H-imidazole 3-oxide], the values for the IC50 (on human ACSS2 protein; in assay [1]) were below 0.001 µM and above 0.05 µM, respectively. Also, the “ACSS1 Biochemical IC50 (nM)” value at human ACSS1 protein was “Inactive”.

Turning to `CCC(F)(F)c1cccc(NC(=O)c2c(C)[nH]c(-c3ccc(Cl)c(-c4c(C)cccc4C)c3)[n+]2[O-])c1` [Compound 108, 2-(6-chloro-2′,6′-dimethyl-[1,1′-biphenyl]-3-yl)-4-((3-(1,1-difluoropropyl)phenyl)carbamoyl)-5-methyl-1H-imidazole 3-oxide], the IC50 on human ACSS2 protein was below 0.001 µM; in assay [1] it was 0.02 to 0.05 µM. The “ACSS1 Biochemical IC50 (nM)” value at human ACSS1 protein was “Inactive”.

On to `CCC(F)(F)c1cccc(NC(=O)c2c(C)[nH]c(-c3cccc(-c4nccnc4C)c3)[n+]2[O-])c1` [Compound 110, 4-((3-(1,1-difluoropropyl)phenyl)carbamoyl)-5-methyl-2-(3-(3-methylpyrazin-2-yl)phenyl)-1H-imidazole 3-oxide], for which the IC50 at human ACSS2 protein is below 0.001 µM; on human ACSS1 protein (read-out: ACSS1 Biochemical IC50) it was above 0.03 µM; in assay [1], below 0.02 µM.

Regarding `COc1ccc(-c2[nH]c(C)c(C(=O)Nc3cccc(C(=O)N(C)C)c3)[n+]2[O-])cc1-c1c(C)cccc1C` [Compound 119, 4-((3-(dimethylcarbamoyl)phenyl)carbamoyl)-2-(6-methoxy-2′,6′-dimethyl-[1,1′-biphenyl]-3-yl)-5-methyl-1H-imidazole 3-oxide], the IC50 on human ACSS2 protein was below 0.001 µM; in assay [1] it was below 0.02 µM. For the same molecule, the “ACSS1 Biochemical IC50 (nM)” value on human ACSS1 protein is listed as “Inactive”.

Take `CCC(F)(F)c1cccc(NC(=O)c2c(C)[nH]c(-c3cc(-c4c(C)cccc4C)c(OC)cc3F)[n+]2[O-])c1` [Compound 125, 4-((3-(1,1-difluoropropyl)phenyl)carbamoyl)-2-(4-fluoro-6-methoxy-2′,6′-dimethyl-[1,1′-biphenyl]-3-yl)-5-methyl-1H-imidazole 3-oxide]: the IC50 is below 0.001 µM on human ACSS2 protein and below 0.02 µM in assay [1]. The “ACSS1 Biochemical IC50 (nM)” value on human ACSS1 protein is “Inactive”.
